For 31 compounds, IC50 results are on record in patent US20250179078A1, “INHIBITORS OF NLRP3” (PTC THERAPEUTICS, INC., priority 2022, published 2025).

Each structure is given as a SMILES string.

T1 sequence (Q96P20 whole entry): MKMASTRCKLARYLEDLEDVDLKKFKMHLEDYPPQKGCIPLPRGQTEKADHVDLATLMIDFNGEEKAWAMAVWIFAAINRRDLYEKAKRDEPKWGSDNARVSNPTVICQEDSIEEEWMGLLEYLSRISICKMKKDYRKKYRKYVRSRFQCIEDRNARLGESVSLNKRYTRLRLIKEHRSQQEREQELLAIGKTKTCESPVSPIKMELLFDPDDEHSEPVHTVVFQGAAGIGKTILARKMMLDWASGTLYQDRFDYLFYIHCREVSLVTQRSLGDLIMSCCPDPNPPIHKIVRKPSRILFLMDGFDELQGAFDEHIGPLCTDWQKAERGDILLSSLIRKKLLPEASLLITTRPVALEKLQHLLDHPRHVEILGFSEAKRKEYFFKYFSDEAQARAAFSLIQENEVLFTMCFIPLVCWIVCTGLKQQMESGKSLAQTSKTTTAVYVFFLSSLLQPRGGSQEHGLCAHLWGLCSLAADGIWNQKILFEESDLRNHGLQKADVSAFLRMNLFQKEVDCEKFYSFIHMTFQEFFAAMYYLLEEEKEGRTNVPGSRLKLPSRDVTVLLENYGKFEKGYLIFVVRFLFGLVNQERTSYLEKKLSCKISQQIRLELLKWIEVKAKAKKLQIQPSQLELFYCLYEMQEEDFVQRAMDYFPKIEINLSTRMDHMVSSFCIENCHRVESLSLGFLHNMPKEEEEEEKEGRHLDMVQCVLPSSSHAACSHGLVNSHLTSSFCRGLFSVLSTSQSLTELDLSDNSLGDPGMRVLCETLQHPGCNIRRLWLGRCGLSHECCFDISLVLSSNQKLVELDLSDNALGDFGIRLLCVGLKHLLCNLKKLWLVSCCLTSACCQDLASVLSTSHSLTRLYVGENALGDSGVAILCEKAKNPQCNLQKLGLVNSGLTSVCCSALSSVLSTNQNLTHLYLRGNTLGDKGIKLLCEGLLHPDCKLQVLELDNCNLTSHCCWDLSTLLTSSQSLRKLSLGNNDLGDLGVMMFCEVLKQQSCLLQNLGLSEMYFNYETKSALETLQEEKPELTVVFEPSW

The test concerns the target T1, NLRP3 (Homo sapiens, UniProt Q96P20).
T1 construct: host or cells: THP-1 cells differentiated with PMA
Description: IL-1β Secretion Assay (NLRP3-dependent IL1β secretion in THP1 cells). Type of test: cell-based. Conditions: PMA-differentiated THP-1 cells; compounds incubated 20 h; 2.5 μM Nigericin 3 h; HTRF IL-1β readout; read-out: IC50 IL-1β Inhibition. The method, boiled down:
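THP-1 cells differentiated with 100 ng/mL PMA for 24 h, then given compound (7-point 3-fold series, 1:200 from DMSO) for 20 h in RPMI+5% FBS. NLRP3 activated with 2.5 μM nigericin for 3 h; secreted IL-1β measured by HTRF; IC50 from logistic fit of % inhibition.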
For orientation: In TR-FRET formats the signal depends on donor and acceptor labels being close together.
In general, IC50 refers to the concentration needed to halve the response being measured. Consider `COc1ccc(-c2nnc(NC3CCNC3=O)n3cccc23)c(OC(F)F)c1` (stereo not shown) [Compound 174, 3-({1-[2-(difluoromethoxy)-4-methoxyphenyl]pyrrolo[1,2-d][1,2,4]triazin-4-yl}amino)pyrrolidin-2-one], for which the IC50 lay within 10 to 100 nM.

For the compound `Cc1ncn2c(N[C@@H]3CCCC[C@H]3O)nnc(-c3ccc(C(F)(F)F)cc3CC(F)(F)F)c12` [Compound 280, (1R,2R)-2-({8-methyl-1-[2-(2,2,2-trifluoroethyl)-4-(trifluoromethyl)phenyl]imidazo[1,5-d][1,2,4]triazin-4-yl}amino)cyclohexan-1-ol], the IC50 lay within 1 to 10 nM.

As to `CC(Nc1nnc(-c2ccc(C(F)(F)F)cc2OC(F)F)c2cccn12)c1cccc(O)c1` (stereo not shown) [Compound 89, 3-[1-({1-[2-(difluoromethoxy)-4-(trifluoromethyl)phenyl]pyrrolo[1,2-d][1,2,4]triazin-4-yl}amino)ethyl]phenol], the IC50 lay within 1 to 10 nM.

`C[C@]1(O)C[C@@H](Nc2nnc(-c3ccc(C(F)(F)F)cc3OC(F)(F)F)c3ccnn23)C1` [Compound 397, (1s,3s)-1-methyl-3-({4-[2-(trifluoromethoxy)-4-(trifluoromethyl)phenyl]pyrazolo[1,5-d][1,2,4]triazin-7-yl}amino)cyclobutan-1-ol]: the IC50 was in the range of 1 to 10 nM.

As to `O[C@H]1CCCC[C@@H]1Nc1nnc(-c2ccc(C(F)(F)F)cc2C(F)(F)F)c2cncn12` [Compound 293, (1S,2S)-2-({1-[2,4-bis(trifluoromethyl)phenyl]imidazo[1,5-d][1,2,4]triazin-4-yl}amino)cyclohexan-1-ol], the IC50 lay in the range of 10 to 100 nM.

On to `Cc1cc2c(-c3ccc(C(F)(F)F)cc3C(F)(F)F)nnc(N[C@H]3CCCC[C@@H]3O)n2c1` [Compound 132, (1S,2S)-2-({1-[2,4-bis(trifluoromethyl)phenyl]-7-methylpyrrolo[1,2-d][1,2,4]triazin-4-yl}amino)cyclohexan-1-ol], for which the IC50 lay in the range of 10 to 100 nM.

`CN1CCC[C@@H](Nc2nnc(-c3ccc(C(F)(F)F)cc3F)c3cccn23)C1` [Compound 19, 1-[2-fluoro-4-(trifluoromethyl)phenyl]-N-[(3R)-1-methylpiperidin-3-yl]pyrrolo[1,2-d][1,2,4]triazin-4-amine]: the IC50 lay within 10 to 100 nM.

`CCN1CCC[C@@H](Nc2nnc(-c3ccc(Cl)cc3)c3cc(C)nn23)C1` [Compound 377, 4-(4-chlorophenyl)-N-[(3R)-1-ethylpiperidin-3-yl]-2-methylpyrazolo[1,5-d][1,2,4]triazin-7-amine]: the IC50 was in the range of 1 to 10 nM.

With `C[C@]1(O)C[C@@H](Nc2nnc(-c3ccc(C(F)(F)F)cc3CC(F)(F)F)c3cccn23)C1` [Compound 41, (1s,3s)-1-methyl-3-({1-[2-(2,2,2-trifluoroethyl)-4-(trifluoromethyl)phenyl]pyrrolo[1,2-d][1,2,4]triazin-4-yl}amino)cyclobutan-1-ol], the IC50 is 1 to 10 nM.

For `CC(C)(O)C1CC(Nc2nnc(-c3ccc(C(F)(F)F)cc3OC(F)(F)F)c3cncn23)C1` (stereo not shown) [Compound 325, 2-[3-({1-[2-(trifluoromethoxy)-4-(trifluoromethyl)phenyl]imidazo[1,5-d][1,2,4]triazin-4-yl}amino)cyclobutyl]propan-2-ol], the IC50 lay within 10 to 100 nM.

For `COc1ccc(-c2nnc(N[C@@H]3CCOC[C@H]3O)n3cncc23)c(OC(F)(F)F)c1` [Compound 292, (3S,4R)-4-({1-[4-methoxy-2-(trifluoromethoxy)phenyl]imidazo[1,5-d][1,2,4]triazin-4-yl}amino)oxan-3-ol], the IC50 lay within 10 to 100 nM.

For `CN1C[C@@H](O)C[C@@H](Nc2nnc(-c3ccc(C(F)(F)F)cc3OC(F)F)c3cccn23)C1` [Compound 98, (3S,5R)-5-({1-[2-(difluoromethoxy)-4-(trifluoromethyl)phenyl]pyrrolo[1,2-d][1,2,4]triazin-4-yl}amino)-1-methylpiperidin-3-ol], the IC50 lay within 1 to 10 nM.

As for `CCN1CCC[C@@H](Nc2nnc(-c3ccc(OC)c(OC)c3OC)c3cc(C)nn23)C1` [Compound 370, N-[(3R)-1-ethylpiperidin-3-yl]-2-methyl-4-(2,3,4-trimethoxyphenyl)pyrazolo[1,5-d][1,2,4]triazin-7-amine], the 50% inhibitory concentration (IC50) fell in the range of 10 to 100 nM.

`CCN1CCC[C@@H](Nc2nnc(-c3ccc(OC)cc3OC(F)(F)F)c3cc(C)nn23)C1` [Compound 371, N-[(3R)-1-ethylpiperidin-3-yl]-4-[4-methoxy-2-(trifluoromethoxy)phenyl]-2-methylpyrazolo[1,5-d][1,2,4]triazin-7-amine]: the IC50 was in the range of 1 to 10 nM.

`COc1ccc(-c2nnc(N[C@H]3C[C@@](C)(O)C3)n3cccc23)c(CC(F)(F)F)c1` [Compound 1, (1s,3s)-3-({1-[4-methoxy-2-(2,2,2-trifluoroethyl)phenyl]pyrrolo[1,2-d][1,2,4]triazin-4-yl}amino)-1-methylcyclobutan-1-ol]: the IC50 was in the range of 1 to 10 nM.

Regarding `CCN1CCC[C@@H](Nc2nnc(-c3ccc(Cl)cc3OC(F)F)c3cncn23)C1` [Compound 191, 1-[4-chloro-2-(difluoromethoxy)phenyl]-N-[(3R)-1-ethylpiperidin-3-yl]imidazo[1,5-d][1,2,4]triazin-4-amine], the IC50 is < 1 nM.

`FC(F)Oc1ccc(-c2nnc(Nc3cc[nH]n3)n3cncc23)c(OC(F)(F)F)c1` [Compound 296, 1-[4-(difluoromethoxy)-2-(trifluoromethoxy)phenyl]-N-(1H-pyrazol-3-yl)imidazo[1,5-d][1,2,4]triazin-4-amine]: the IC50 was 10 to 100 nM.

For `CCN1CCC[C@@H](Nc2nnc(-c3ccc(C)cc3SC)c3cc(C)nn23)C1` [Compound 367, N-[(3R)-1-ethylpiperidin-3-yl]-2-methyl-4-[4-methyl-2-(methylsulfanyl)phenyl]pyrazolo[1,5-d][1,2,4]triazin-7-amine], the IC50 was 1 to 10 nM.

Take `O[C@@H]1COCC[C@H]1Nc1nnc(-c2ccc(OC(F)F)cc2OC(F)(F)F)c2cncn12` [Compound 331, (3S,4R)-4-({1-[4-(difluoromethoxy)-2-(trifluoromethoxy)phenyl]imidazo[1,5-d][1,2,4]triazin-4-yl}amino)oxan-3-ol]: the IC50 was 10 to 100 nM.

Turning to `CCN1C[C@H](F)C[C@@H](Nc2nnc(-c3ccc(C(F)(F)F)cc3OC(F)F)c3c(F)ccn23)C1` [Compound 5, 1-[2-(difluoromethoxy)-4-(trifluoromethyl)phenyl]-N-[(3R,5R)-1-ethyl-5-fluoropiperidin-3-yl]-8-fluoropyrrolo[1,2-d][1,2,4]triazin-4-amine], the IC50 was in the range of 1 to 10 nM.

Turning to `COc1ccc(-c2nnc(N[C@@H]3CCCN(C)C3)n3cc(C)cc23)c(OC(F)(F)F)c1` [Compound 131, 1-[4-methoxy-2-(trifluoromethoxy)phenyl]-7-methyl-N-[(3R)-1-methylpiperidin-3-yl]pyrrolo[1,2-d][1,2,4]triazin-4-amine], the IC50 was < 1 nM.

`CN1CCC[C@@H](Nc2nnc(-c3ccc(C4CC4)cc3OC(F)F)c3cncn23)C1` [Compound 203, 1-[4-cyclopropyl-2-(difluoromethoxy)phenyl]-N-[(3R)-1-methylpiperidin-3-yl]imidazo[1,5-d][1,2,4]triazin-4-amine]: the IC50 is < 1 nM.

For `Cc1cc2c(-c3ccc(C(F)(F)F)cc3OC(F)F)nnc(NC(C)c3cccc(O)c3)n2n1` (stereo not shown) [Compound 383, 3-[1-({4-[2-(difluoromethoxy)-4-(trifluoromethyl)phenyl]-2-methylpyrazolo[1,5-d][1,2,4]triazin-7-yl}amino)ethyl]phenol], the IC50 fell in the range of 1 to 10 nM.

For the compound `OC[C@H]1C[C@@H](Nc2nnc(-c3ccc(C(F)(F)F)cc3OC(F)(F)F)c3cncn23)C1` [Compound 255, [(1s,3s)-3-({1-[2-(trifluoromethoxy)-4-(trifluoromethyl)phenyl]imidazo[1,5-d][1,2,4]triazin-4-yl}amino)cyclobutyl]methanol], the IC50 was 1 to 10 nM.

With `COc1ccc(-c2nnc(N[C@H]3C[C@@](C)(O)C3)n3ccc(F)c23)c(Cl)c1` [Compound 84, (1s,3s)-3-{[1-(2-chloro-4-methoxyphenyl)-8-fluoropyrrolo[1,2-d][1,2,4]triazin-4-yl]amino}-1-methylcyclobutan-1-ol], the IC50 lay within 10 to 100 nM.

For the compound `CCN1CCC[C@@H](Nc2nnc(-c3ccc(Br)cc3OC(F)(F)F)c3cc(C)nn23)C1` [Compound 357, 4-[4-bromo-2-(trifluoromethoxy)phenyl]-N-[(3R)-1-ethylpiperidin-3-yl]-2-methylpyrazolo[1,5-d][1,2,4]triazin-7-amine], the IC50 is < 1 nM.

On to `Cc1ccc(-c2nnc(N[C@@H]3CCCN(C)C3)n3nc(C)cc23)c(OC(F)F)c1` [Compound 361, 4-[2-(difluoromethoxy)-4-methylphenyl]-2-methyl-N-[(3R)-1-methylpiperidin-3-yl]pyrazolo[1,5-d][1,2,4]triazin-7-amine], for which the IC50 lay within 1 to 10 nM.

Turning to `CCN1CCC[C@@H](Nc2nnc(-c3ccc(C(F)(F)F)cc3C(F)(F)F)c3cncn23)C1` [Compound 271, 1-[2,4-bis(trifluoromethyl)phenyl]-N-[(3R)-1-ethylpiperidin-3-yl]imidazo[1,5-d][1,2,4]triazin-4-amine], the IC50 is < 1 nM.

On to `CCN1CCC[C@@H](Nc2nnc(-c3ccc(OC)cc3OC(F)F)c3c(F)ccn23)C1` [Compound 56, 1-[2-(difluoromethoxy)-4-methoxyphenyl]-N-[(3R)-1-ethylpiperidin-3-yl]-8-fluoropyrrolo[1,2-d][1,2,4]triazin-4-amine], for which the IC50 is < 1 nM.

For `CN1CCC[C@@H](Nc2nnc(-c3ccc(Br)cc3C(F)(F)F)c3cncn23)C1` [Compound 200, 1-[4-bromo-2-(trifluoromethyl)phenyl]-N-[(3R)-1-methylpiperidin-3-yl]imidazo[1,5-d][1,2,4]triazin-4-amine], the IC50 lay within 1 to 10 nM.

As for `COc1ccc(-c2nnc(N[C@H]3CCC[C@@H](CO)C3)n3cccc23)c(OC(F)F)c1` [Compound 176, [(1R,3S)-3-({1-[2-(difluoromethoxy)-4-methoxyphenyl]pyrrolo[1,2-d][1,2,4]triazin-4-yl}amino)cyclohexyl]methanol], the IC50 was 10 to 100 nM.
